Laboratory results reported in ChEMBL document CHEMBL5360672, “Identification of Novel Dual-Target Estrogen Receptor α Degraders with Tubulin Inhibitory Activity for the Treatment of Endocrine-Resistant Breast Cancer” (J Med Chem, 2023).
The source made the active and inactive calls. The calls are words filed in the database; no cut-off is given here.

Experiments:
[1] = Selectivity index, ratio of IC50 for cytotoxicity against human MCF-10A cells to IC50 for antiproliferative activity against human MCF7 cells; assay type: toxicity, cell-based; settings: MCF-10A cells and MCF7 cells, read-out: Ratio IC50
[2] = system: MCF7; assay: Antitumor activity against human MCF7 cells xenografted in Balb/c nude mouse assessed as tumor growth inhibition at 2 mg/kg, ip administered every other day for 20 days relative to control; assay type: functional; settings: MCF7, 480 h, time 20 day, read-out: TGI
[3] = biological target: T1, Estrogen receptor (Homo sapiens) (UniProt P03372); assay: Induction of ERalpha degradation in human MCF7 cells incubated for 6 to 24 hrs by Western blot analysis; assay type: cell-based; settings: dose 0.5-5 µM, time 6-24 hrs
T1 sequence (whole entry): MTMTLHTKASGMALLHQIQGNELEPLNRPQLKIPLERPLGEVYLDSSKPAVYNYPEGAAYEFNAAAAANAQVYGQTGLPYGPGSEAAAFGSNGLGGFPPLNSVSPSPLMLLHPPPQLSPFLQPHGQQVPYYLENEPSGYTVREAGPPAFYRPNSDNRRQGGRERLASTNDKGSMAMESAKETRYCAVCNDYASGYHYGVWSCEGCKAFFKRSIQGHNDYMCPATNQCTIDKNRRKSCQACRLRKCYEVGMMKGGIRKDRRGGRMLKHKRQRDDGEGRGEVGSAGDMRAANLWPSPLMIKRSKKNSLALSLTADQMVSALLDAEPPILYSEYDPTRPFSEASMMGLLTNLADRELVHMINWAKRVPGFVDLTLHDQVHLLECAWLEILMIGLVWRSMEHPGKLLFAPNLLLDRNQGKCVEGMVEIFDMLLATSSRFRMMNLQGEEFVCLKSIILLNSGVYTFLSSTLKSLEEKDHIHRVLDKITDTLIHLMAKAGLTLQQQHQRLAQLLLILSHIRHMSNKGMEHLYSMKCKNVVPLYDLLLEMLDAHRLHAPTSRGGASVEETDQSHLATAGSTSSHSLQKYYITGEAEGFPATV

[4] = Antiproliferative activity against human Tamoxifen-resistant LCC2 cells assessed as inhibition of cell proliferation incubated for 72 hrs by CCK8 assay; assay type: functional, cell-based
[5] = system: Estrogen receptor (Homo sapiens), P03372 [Y537S]; assay: Induction of ERalpha degradation in human T47D cells harboring ERalpha Y537S mutant at 0.5 to 5 uM incubated for 24 hrs by Western blot analysis; assay type: cell-based; settings: dose 0.5-5 µM
[6] = Toxicity in Balb/c nude mouse xenografted with human MCF7 cells assessed as effect on heart morphology at 2 to 4 mg/kg, ip administered every other day for 20 days by H&E staining based analysis; assay type: organism-based; settings: in vivo, 480 h, dose 2-4 mg/kg, time 20 day
[7] = biological target: T2, Tubulin (Homo sapiens) (UniProt P68371+Q9H4B7+P0DPH7+P68366+Q13509+Q71U36+P04350+Q3ZCM7+P07437+P68363+Q9BQE3+Q6PEY2+Q13885+Q9BVA1+Q9BUF5); assay: Disruption of microtubule network in human LCC2 cells assessed as ruptured microtubule network at 4 uM incubated for 48 hrs by DAPI staining based confocal laser scanning microscopic analysis; assay type: cell-based
[8] = Toxicity in Balb/c nude mouse xenografted with human MCF7 cells assessed as body weight loss at 2 to 4 mg/kg, ip administered every other day for 20 days; assay type: organism-based; settings: in vivo, 480 h, dose 2-4 mg/kg, time 20 day
[9] = system: Estrogen receptor (Homo sapiens), P03372 [D538G]; assay: Induction of ERalpha degradation in human T47D cells harboring ERalpha D538G mutant at 0.5 to 5 uM incubated for 24 hrs by Western blot analysis; assay type: cell-based; settings: dose 0.5-5 µM
[10] = system: Tamoxifen-resistant LCC2 cell; assay: Antitumor activity against human Tamoxifen-resistant LCC2 cells xenografted in Balb/c nude mouse assessed as reduction in Ki67 positive cells at 2 mg/kg, ip administered every other day for 20 days by immunohistochemistry analysis; assay type: functional, organism-based; settings: time 20.0 day
[11] = biological target: T1, Estrogen receptor (Homo sapiens); assay: Binding affinity to human ERalpha assessed as relative binding affinity incubated under vibration for 1 min followed by 2 hrs incubation under dark condition by fluorescence polarization assay relative to estradiol; settings: time 121.0 min
[12] = biological target: T1, Estrogen receptor (Homo sapiens); assay: Induction of ERalpha degradation in human MCF7 cells at 5 uM incubated for 24 hrs by Western blot analysis; assay type: cell-based
[13] = Toxicity in Balb/c nude mouse xenografted with human MCF7 cells assessed as effect on kidney morphology at 2 to 4 mg/kg, ip administered every other day for 20 days by H&E staining based analysis; assay type: organism-based; settings: in vivo, 480 h, dose 2-4 mg/kg, time 20 day
[14] = system: MCF7; assay: Antitumor activity against human MCF7 cells xenografted in Balb/c nude mouse assessed as tumor growth inhibition at 4 mg/kg, ip administered every other day for 20 days relative to control; assay type: functional; settings: MCF7, 480 h, time 20 day, read-out: TGI
[15] = biological target: Estrogen receptor beta (Homo sapiens) (UniProt Q92731); assay: Binding affinity to human ERbeta assessed as relative binding affinity incubated under vibration for 1 min followed by 2 hrs incubation under dark condition by fluorescence polarization assay relative to estradiol; settings: time 121.0 min
[16] = biological target: T2, Tubulin (Homo sapiens); assay: Disruption of microtubule network in human MCF7 cells assessed as chaotic microtubule network at 2 uM incubated for 48 hrs by DAPI staining based confocal laser scanning microscopic analysis; assay type: cell-based
[17] = Antitumor activity against human Tamoxifen-resistant LCC2 cells xenografted in Balb/c nude mouse assessed as tumor growth inhibition at 2 mg/kg, ip administered every other day for 20 days relative to control; assay type: functional; settings: Tamoxifen-resistant LCC2 cell, 480 h, time 20 day, read-out: TGI
[18] = biological target: T2, Tubulin (Homo sapiens); assay: Inhibition of tubulin polymerization (unknown origin) at 30 uM incubated for 60 mins by microplate reader analysis; assay type: protein-complex assay
[19] = system: Mus musculus; assay: In vivo induction of ERalpha degradation in BALB/c nude mouse xenografted with human tamoxifen-resistant LCC2 cells assessed as decrease in ERalpha expression in tumor at 2 mg/kg, ip administered every other day for 20 days by Western blot analysis; assay type: functional, organism-based; settings: time 20.0 day
[20] = Toxicity in Balb/c nude mouse xenografted with human MCF7 cells assessed as effect on liver morphology at 2 to 4 mg/kg, ip administered every other day for 20 days by H&E staining based analysis; assay type: organism-based; settings: in vivo, 480 h, dose 2-4 mg/kg, time 20 day
[21] = Cytotoxicity against human MCF-10A cells assessed as inhibition of cell proliferation incubated for 72 hrs by CCK8 assay; assay type: toxicity, cell-based
[22] = system: T47D; assay: Antiproliferative activity against ERalpha positive human T47D cells assessed as inhibition of cell proliferation incubated for 72 hrs by CCK8 assay; assay type: functional, cell-based
[23] = system: Mus musculus; assay: In vivo induction of ERalpha degradation in BALB/c nude mouse xenografted with human MCF7 cells assessed as decrease in ERalpha expression in tumor at 2 to 4 mg/kg, ip administered every other day for 20 days by Western blot analysis; assay type: functional, organism-based; settings: dose 2-4 mg/kg, time 20.0 day
[24] = system: T47D; assay: Antiproliferative activity against human T47D cells harboring ERalpha D538G mutant assessed as inhibition of cell proliferation incubated for 72 hrs by CCK8 assay; assay type: functional, cell-based
[25] = species: Homo sapiens; assay: Selectivity ratio of relative binding affinity for human ERalpha to relative binding affinity to human ERbeta
[26] = system: T47D; assay: Antiproliferative activity against human T47D cells harboring ERalpha Y537S mutant assessed as inhibition of cell proliferation incubated for 72 hrs by CCK8 assay; assay type: functional, cell-based
[27] = biological target: T1, Estrogen receptor (Homo sapiens); assay: Induction of ERalpha degradation in human MCF7 cells at 5 uM incubated for 24 hrs by Western blot analysis relative to SeCN-OBHSA derivatives; assay type: cell-based
[28] = biological target: T1, Estrogen receptor (Homo sapiens); assay: Induction of ERalpha degradation in human Tamoxifen-resistant LCC2 cells at 0.5 uM incubated for 6 to 24 hrs by Western blot analysis; assay type: cell-based; settings: Tamoxifen-resistant LCC2 cell, time 6-24 hrs
[29] = biological target: T1, Estrogen receptor (Homo sapiens); assay: Induction of ERalpha degradation in human MCF7 cells at 1 uM incubated for 6 to 24 hrs by Western blot analysis; assay type: cell-based; settings: time 6-24 hrs
[30] = system: MCF7; assay: Antitumor activity against human MCF7 cells xenografted in Balb/c nude mouse assessed as reduction in Ki67 positive cells at 2 to 4 mg/kg, ip administered every other day for 20 days by immunohistochemistry analysis; assay type: functional, organism-based; settings: dose 2-4 mg/kg, time 20.0 day
[31] = system: MDA-MB-231; assay: Antiproliferative activity against ERalpha negative human MDA-MB-231 cells assessed as inhibition of cell proliferation incubated for 72 hrs by CCK8 assay; assay type: functional, cell-based; settings: MDA-MB-231, 72 h
[32] = biological target: T1, Estrogen receptor (Homo sapiens); assay: Induction of ERalpha degradation in human MCF7 cells at 5 uM incubated for 24 hrs in the presence of MG-132 by Western blot analysis; assay type: cell-based
[33] = system: MCF7; assay: Antiproliferative activity against ERalpha positive human MCF7 cells assessed as inhibition of cell proliferation incubated for 72 hrs by CCK8 assay; assay type: functional, cell-based; settings: MCF7, 72 h
[34] = biological target: T2, Tubulin (Homo sapiens); assay: Disruption of microtubule network in human MCF7 cells assessed as ruptured microtubule network at 2 uM incubated for 48 hrs by DAPI staining based confocal laser scanning microscopic analysis; assay type: cell-based
[35] = biological target: T2, Tubulin (Homo sapiens); assay: Disruption of microtubule network in human LCC2 cells assessed as chaotic microtubule network at 4 uM incubated for 48 hrs by DAPI staining based confocal laser scanning microscopic analysis; assay type: cell-based
[36] = Antitumor activity against human Tamoxifen-resistant LCC2 cells xenografted in Balb/c nude mouse assessed as tumor growth inhibition at 4 mg/kg, ip administered every other day for 20 days relative to control; assay type: functional; settings: Tamoxifen-resistant LCC2 cell, 480 h, time 20 day, read-out: TGI

Sequence of Estrogen receptor beta (Homo sapiens) (Q92731 whole entry): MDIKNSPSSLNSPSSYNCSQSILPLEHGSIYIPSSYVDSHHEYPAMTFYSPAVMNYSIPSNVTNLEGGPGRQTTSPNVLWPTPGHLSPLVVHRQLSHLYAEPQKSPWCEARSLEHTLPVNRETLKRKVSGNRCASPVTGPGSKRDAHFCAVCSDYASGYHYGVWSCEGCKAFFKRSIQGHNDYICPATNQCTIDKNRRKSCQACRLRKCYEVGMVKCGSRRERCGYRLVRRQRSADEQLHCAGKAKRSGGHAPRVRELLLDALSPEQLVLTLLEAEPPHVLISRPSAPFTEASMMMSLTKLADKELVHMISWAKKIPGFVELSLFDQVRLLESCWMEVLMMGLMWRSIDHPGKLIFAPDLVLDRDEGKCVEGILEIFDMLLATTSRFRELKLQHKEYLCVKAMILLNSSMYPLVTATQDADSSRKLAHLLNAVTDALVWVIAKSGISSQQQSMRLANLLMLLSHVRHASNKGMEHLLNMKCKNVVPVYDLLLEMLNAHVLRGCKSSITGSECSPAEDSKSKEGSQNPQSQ
Sequence of Estrogen receptor (Homo sapiens), P03372 [Y537S] (P03372 whole entry Y537S): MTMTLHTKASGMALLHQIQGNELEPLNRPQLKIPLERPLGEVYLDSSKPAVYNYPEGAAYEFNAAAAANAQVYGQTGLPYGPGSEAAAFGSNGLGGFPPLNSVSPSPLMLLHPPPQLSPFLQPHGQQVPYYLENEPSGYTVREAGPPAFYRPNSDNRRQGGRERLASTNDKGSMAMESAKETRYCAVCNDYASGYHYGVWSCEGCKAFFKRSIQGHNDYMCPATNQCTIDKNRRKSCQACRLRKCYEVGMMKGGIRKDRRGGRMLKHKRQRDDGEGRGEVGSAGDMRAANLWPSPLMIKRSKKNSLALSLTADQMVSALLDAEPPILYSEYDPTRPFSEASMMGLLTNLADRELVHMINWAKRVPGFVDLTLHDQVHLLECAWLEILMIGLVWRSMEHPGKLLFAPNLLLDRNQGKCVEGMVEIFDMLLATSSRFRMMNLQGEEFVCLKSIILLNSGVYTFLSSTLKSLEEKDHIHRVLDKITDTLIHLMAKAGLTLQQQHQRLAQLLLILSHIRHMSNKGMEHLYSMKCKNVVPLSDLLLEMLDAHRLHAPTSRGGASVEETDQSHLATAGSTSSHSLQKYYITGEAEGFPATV
Sequence of Estrogen receptor (Homo sapiens), P03372 [D538G] (P03372 whole entry D538G): as the sequence (P03372 whole entry Y537S) above, with S537Y, D538G counted along it

| RBA [11] [%] | RBA [15] [%] | tubulin polymerization inhibition (active/not active) [18] | IC50 [22] [µM] | IC50 [24] [µM] | Selectivity ratio [25] | IC50 [26] [µM] | IC50 [33] [µM] | Compound | selectivity ratio [1] | inhibition in vivo at 2 mg/kg [2] [%] | IC50 [4] [µM] | inhibition in vivo at 4 mg/kg [14] [%] | inhibition in vivo at 2 mg/kg [17] [%] | IC50 at 72 h [21] [µM] | IC50 [31] [µM] | other results |
| --- | --- | --- | --- | --- | --- | --- | --- | --- | --- | --- | --- | --- | --- | --- | --- | --- |
| 7.26 | 0.46 | Active | 2.82 | 3 | 15.8 | 1.44 | 0.09 | CCN(c1ccccc1F)S(=O)(=O)C1CC2OC1C(c1ccc(NC(=O)CCCCC[Se]C#N)cc1)=C2c1ccc(O)cc1 (stereo not drawn) | 203 | 69.1 | 2.81 | 79.3 | 56.9 | 18.3 | 3.7 | Activity [3]: Dose-Dependent Effect; Activity [5]: Active; Activity [6]: Non-Toxic; Activity [7]: Active; Activity [8]: Non-Toxic; Activity [9]: Active; Activity [10]: Active; Activity [12]: Active; Activity [13]: Non-Toxic; Activity [16]: Active; Activity [19]: Active; Activity [20]: Non-Toxic; Activity [23]: Active; Activity [27]: Active; Activity [28]: 100%; Activity [29]: Active; Activity [30]: Active; Activity [32]: inactive; Activity [34]: Active; Activity [35]: Active |
| 0.76 | 0.06 | inactive | 6.92 | 7.25 | 12.7 | 12.7 | 0.23 | COc1ccc(N(CC(F)(F)F)S(=O)(=O)C2CC3OC2C(c2ccc(O)cc2)=C3c2ccc(O)cc2)cc1 (stereo not drawn) | 88.6 |  | 5.16 |  |  | 20.4 |  |  |
|  |  |  |  |  |  |  |  | CC/C(=C(\c1ccccc1)c1ccc(OCCN(C)C)cc1)c1ccccc1 [TAMOXIFEN] |  |  |  | 71.4 |  |  |  | inhibition in vivo at 4 mg/kg [36]: 6.25% |

| Compound | RBA [11] [%] | RBA [15] [%] | tubulin polymerization inhibition (active/not active) [18] | IC50 [22] [µM] | IC50 [24] [µM] | Selectivity ratio [25] | IC50 [26] [µM] | IC50 [33] [µM] | selectivity ratio [1] | inhibition in vivo at 2 mg/kg [2] [%] | IC50 [4] [µM] | inhibition in vivo at 4 mg/kg [14] [%] | inhibition in vivo at 2 mg/kg [17] [%] | IC50 at 72 h [21] [µM] | IC50 [31] [µM] | other results |
| --- | --- | --- | --- | --- | --- | --- | --- | --- | --- | --- | --- | --- | --- | --- | --- | --- |
| C[C@]12CC[C@@H]3c4ccc(O)cc4C[C@@H](CCCCCCCCC[S+]([O-])CCCC(F)(F)C(F)(F)F)[C@H]3[C@@H]1CC[C@@H]2O (stereo partly drawn) [FULVESTRANT] |  |  |  |  |  |  |  | 0.12 |  | 64.1 |  |  | 45.8 | > 100 | > 100 |  |
